Results: patent publication US20260207450A1, “ANTI-DANDRUFF COMPOSITIONS” (Firmenich SA, priority 2022, published 2026)

Test system: M. restricta
Experiment: Disc-diffusion assay, additional perfumery materials in DMSO, M. restricta, 4 days
Type: cell-based, Malassezia restricta
Settings: Malassezia restricta, 96 h, read-out: Inhibition zone diameter (mm) on M. restricta
Protocol: (§1) Anti-Malassezia effect of additional perfumery materials in DMSO was determined using disc-diffusion assay as described previously. Test samples solutions were prepared in DMSO to final concentrations of 0.5%, 1% or 2%. Discs (Whatman, 6 mm in diameter) were placed on inoculated agar plates. Aliquots (20 μL) of each sample solution was added to each disc. Agar plates were incubated at 30° C. for 4 days. After incubation, diameters of the clear inhibition zones around the discs were recorded
as §1, with “above.” for “previously.”, “recorded.” for “recorded”
Anti-Malassezia effect of additional perfumery materials in solvent in DMSO was determined using disc-diffusion assay, as described previously. Test samples solutions are prepared in DMSO to final concentrations of 0.5%. Discs (Whatman, 6 mm in diameter) were placed on inoculated agar plates. Aliquots (20 μL) of each sample solution was added to each disc. Agar plates were incubated at 30° C. for 4 days. After incubation, diameters of the clear inhibition zones around the discs were measured.

Compound	zone of inhibition at 0.5 % [mm]
c1ccc(Oc2ccccc2)cc1 [1,1′-oxydibenzene]	7.4

Same assay, conditions: Malassezia restricta, 96 h; Table 18; 1% in DMSO, M. restricta, 4 days; read-out: Inhibition zone diameter (mm)

Compound	zone of inhibition at 1 % [mm]
CC(C)(O)Cc1ccc(CCC=O)cc1 [3-[4-(2-hydroxy-2-methylpropyl)phenyl]propanal]	8.9

Same assay, conditions: Malassezia restricta, 96 h; Table 18; 2% in DMSO, M. restricta, 4 days; read-out: Inhibition zone diameter (mm)

Compound	zone of inhibition at 2 % [mm]
CC(C)(O)Cc1ccc(CCC=O)cc1 [3-[4-(2-hydroxy-2-methylpropyl)phenyl]propanal]	16

Same assay, conditions: Malassezia restricta, 96 h; Table 19; in DMSO (1% or 2%, not specified per value), M. restricta, 4 days; read-out: Inhibition zone diameter (mm)

Compound	zone of inhibition [mm]
CCCCCCCC=C/C=C/C=O [(2E)-2,4-dodecadienal]	21.5
CCCCCCC=C/C=C/C=O [(2E)-2,4-undecadienal]	26.6
CC/C=C/C=C/C=O [(2E,4E)-2,4-heptadienal]	> 40
CCCCCCC/C=C\CCC=O [(4Z)-4-dodecenal]	7.4
CCCCCC/C=C/CO [(E)-2-nonen-1-ol]	7.5
CCCCCCCC/C=C/C=O [(E)-2-undecenal]	> 40
CCCCC/C=C/C=C/C=O [(E,E)-2,4-decadienal]	> 40
CC/C=C/CC/C=C/C=O [(E,E)-2,6-nonadienal]	> 40
CCCCCCC/C=C\C=O [(Z)-2-decenal]	> 40
CCCC/C=C\CCO [(Z)-3-octen-1-ol]	7.1
CCCCC/C=C\CCC=O [(Z)-4-decenal]	7.2
CC/C=C\CCCCO [(Z)-5-octen-1-ol]	7.3

Same assay, conditions: Malassezia restricta, 96 h; Table 20; 0.5% in DMSO, 4 days; read-out: Inhibition zone diameter (mm) on M. restricta

Compound	zone of inhibition at 0.5 % [mm]
Cc1cc2c(cc1C=O)C(C)(C)[C@H](C)[C@@H](C)C2(C)C (racemic) [(6RS,7RS)-3,5,5,6,7,8,8-heptamethyl-5,6,7,8-tetrahydro-2-naphthalenecarbaldehyde]	7.8
C=CC(C)CCCC(C)(C)O (racemic) [(+/−)-2,6-dimethyl-7-octen-2-ol]	7.5
CCC(=CCC1CC=C(C)C1(C)C)CO (racemic) [(+/−)-2-ethyl-4-(2,2,3-trimethyl-3-cyclopenten-1-yl)-2-buten-1-ol]	7
CCCCCCCCC(C)C=O (racemic) [(+/−)-2-methyldecanal]	7.1
CCCCCCCCCC(C)C=O (racemic) [(+/−)-2-methylundecanal]	7.1
CC(C)=CCCC(C)CC=O (racemic) [(+/−)-3,7-dimethyl-6-octenal]	7.3
CC(C=O)Cc1ccc2c(c1)OCO2 (racemic) [(+/−)-3-(1,3-benzodioxol-5-yl)-2-methylpropanal]	19
CC(CC=O)CCc1ccccc1 (racemic) [(+/−)-3-methyl-5-phenylpentanal]	7.6
Cc1ccc2c(c1)CC(C)(CO)C2 (racemic) [(+/−)-(2,5-dimethyl-2,3-dihydro-1H-inden-2-yl)methanol]	7
CC1=CCC(C/C=C(\C)CO)C1(C)C (racemic) [(+/−)-(2E)-2-methyl-4-(2,2,3-trimethyl-3-cyclopenten-1-yl)-2-buten-1-ol]	7.6
CC(C)=CCCC(C)CCOCC=O (racemic) [(+/−)-[(3,7-dimethyl-6-octen-1-yl)oxy]acetaldehyde]	9.7
C=C1CCCC(C)(C)C1C(=O)OC (racemic) [(+/−)-methyl 2,2-dimethyl-6-methylidenecyclohexanecarboxylate]	7.5
O=C1CCCCCCCCCCCC(=O)OCCO1 [1,4-dioxacycloheptadecane-5, 17-dione]	7.3
CC1=C(C=O)C(C)(C)CC=C1 [2,6,6-trimethyl-1,3-cyclohexadiene-1-carbaldehyde]	7.2
CC(C)CCCC(C)(C)O [2,6-dimethyl-2-heptanol]	7.7
CC(=O)OCCC1=CCC2CC1C2(C)C (stereo not drawn) [2-(6,6-dimethyl-bicyclo[3.1.1]hept-2-en-2-yl)ethyl acetate]	7.5
CC(C=O)c1ccccc1 (stereo not drawn) [2-phenylpropanal]	7
CC(=CC=O)CCC(C)=C(C)C [3,6,7-trimethyl-2,6-octadienal]	8.7
CC1(C)CC=C(CCC=O)CC1 [3-(4,4-dimethyl-1-cyclohexen-1-yl)propanal]	8.9
CC1(C)C2CC=C(CCC=O)C1C2 (stereo not drawn) [3-(6,6-dimethyl-bicyclo[3.1.1]hept-2-en-2-yl)propanal]	7.3
COC(C)(C)C1CC=C(C)CC1 (stereo not drawn) [4-(2-methoxy-2-propanyl)-1-methylcyclohexene]	7

Compound	zone of inhibition at 0.5 % [mm]
COc1cc(C=O)ccc1OC(=O)C(C)C [4-formyl-2-methoxyphenyl 2-methylpropanoate]	10.2
COC(OC)C(C)(C)CC=C(C)C [6,6-dimethoxy-2,5,5-trimethyl-2-hexene]	7.2
Cc1ccc2c(c1)OCC(=O)CO2 [7-methyl-2H-1,5-benzodioxepin-3(4H)-one]	7
CCCCCC/C(C=O)=C\c1ccccc1 [(2E)-2-benzylideneoctanal]	7.2
C/C(C=O)=C\c1ccccc1 [(2E)-2-methyl-3-phenyl-2-propenal]	8.1
Cc1ccc(CC=O)cc1 [(4-methylphenyl)acetaldehyde]	10.6
CCCCC/C=C/CCC=O [(4E)-4-decenal]	7.2
CC(C)=CCC[C@@H](C)CC=O [(+)-(R)-3,7-dimethyl-6-octenal]	7.1
CCCCCC/C=C/C=O [(E)-2-nonenal]	38
CCCCC/C=C/C=O [(E)-2-octenal]	24.8
CCCCCCCCCC/C=C/C=O [(E)-2-tridecenal]	15.2
CC/C=C\CCOC(=O)C(C)C [(Z)-3-hexenyl isobutyrate]	7.7
CC/C=C\CCCCC=O [(Z)-6-nonenal]	7.2
CC/C(=C\C[C@H]1CC=C(C)C1(C)C)CO [(−)-(2E)-2-ethyl-4-[(1R)-2,2,3-trimethyl-3-cyclopenten-1-yl]-2-buten-1-ol]	7.6
CC1(C)CCC[C@]2(C)[C@H]3CCO[C@]3(C)CC[C@@H]12 [(−)-(3aR,5aS,9aS,9bR)-3a,6,6,9a-tetramethyldodecahydronaphtho[2,1-b]furan]	7.7
CC(C)=CCC[C@@H](C)CC#N [(−)-(R)-3,7-dimethyl-6-octenenitrile]	7.2
CCCCC/C=C\C=C\C(=O)OCC [ethyl (2E,4Z)-2,4-decadienoate]	7.4
CNc1ccccc1C(=O)OC [methyl 2-(methylamino)benzoate]	7.4
CCCCCCCCC=O [nonanal]	7.3
CCCCCCCC=O [octanal]	7.5

Same assay, conditions: Malassezia restricta, 96 h; read-out: Inhibition zone diameter (mm)

Compound	zone of inhibition at 0.5 % [mm]
C/C(=C\c1ccc(C)cc1)CC(C)C=O (racemic) [(+/−)-(4E)-2,4-dimethyl-5-(4-methylphenyl)-4-pentenal]	7.8

Same assay, conditions: Table 19; in DMSO (0.5%, 1% or 2%, not specified per value), M. restricta, 4 days

Compound	Inhibition zone diameter (mm)
(+/−)-(4Z)-4,8-dimethyl-4,9-decadienal + (+/−)-(4E)-4,8-dimethyl-4,9-decadienal	7.3

Same assay, conditions: Table 20; 0.5% in DMSO, 4 days

Compound	Inhibition zone diameter (mm) on M. restricta [mm]
(1RS,2RS)-2,4-dimethyl-3-cyclohexene-1-carbaldehyde + (1RS,2SR)-2,4-dimethyl-3-cyclohexene-1-carbaldehyde	8.0
(2R)-2-methyl-4-[(1R)-2,2,3-trimethyl-3-cyclopenten-1-yl]-4-pentenal + (2S)-2-methyl-4-[(1R)-2,2,3-trimethyl-3-cyclopenten-1-yl]-4-pentenal	7.0
(+)-(3S)-3-[(1R)-4-methyl-3-cyclohexen-1-yl]butanal + (+)-(3R)-3-[(1R)-4-methyl-3-cyclohexen-1-yl]butanal	7.3
cis-4-(2-methyl-2-propanyl)cyclohexyl acetate + trans-4-(2-methyl-2-propanyl)cyclohexyl acetate	7.2

Test system: M. restricta ATCC MYA-4611
Experiment: Disc-diffusion assay, perfumery materials in DMSO, M. restricta
Type: cell-based, Malassezia restricta
Settings: Malassezia restricta, 144 h
Protocol: Anti-Malassezia effect of perfumery materials in solvent in DMSO was determined using disc-diffusion assay, based on the method of J Mycol Infect 2018: 23: 91-98. In brief, working cultures of Malassezia strains were prepared from −80 C stock culture on mDixon agar plate (for M. furfur DSM 6170) or mLN agar plate (for M. restricta ATCC MYA-4611 and M. globosa ATCC MYA-4612), and cells were suspended in 0.9% saline, and spread onto mDixon or mLN agar surface to prepare lawn plate. Test samples solutions are prepared in DMSO to final concentrations of 0.2%, 1% or 2%. Discs (Whatman, 6 mm in diameter) were placed on inoculated agar plates with each Malassezia strains respectively, including M. furfur DSM 6170, M. restricta ATCC MYA-4611, and M. globosa ATCC MYA-4612. Aliquots (20 μL) of each sample solution was added to each disc. Agar plates were incubated at 30° C. for 3 days for M. furfur DSM 6170, and 6 days for M. restricta ATCC MYA-4611, and M. globosa ATCC MYA-4612. After incubation, diameters of the clear inhibition zones around the discs were measured. Inhibition zone greater than 6 mm are regarded as having anti-Malassezia effect.

Compound	zone of inhibition at 1 % [mm]
CCCCCCO [Mix 1-hexanol, 1-hexanol]	6.7
